Data reported in patent US20090209585A1, “CYCLOALKENE DERIVATIVES, PROCESS FOR PRODUCTION OF THE DERIVATIVES, AND USE OF THE SAME” (priority 2006, published 2009).
Converted amounts (≈) assume the structure as drawn. Structures can show the parent of a compound that is named as a salt.

Legend:
[1] = Solubility according to Japanese Pharmacopoeia general notices, analyzed by HPLC; type: physicochemical; details: thermodynamic from solid, treated according to Japanese Pharmacopoeia
Description: The compounds of Examples 9, 12 and 15 were measured and placed in a glass container by 1 mg each, saline was added in small portions, and the mixture was stirred. The solubility was visually observed. In addition, as a conventional compound having a nitric oxide (NO) production inhibitory effect and an inflammatory cytokine production inhibitory effect, ethyl 6-[N-(2-chloro-4-fluorophenyl)sulfamoyl]cyclohex-1-ene-1-carboxylate (indicated as conventional compound in Table 1) was treated according to the Japanese Pharmacopoeia, general notices, and analyzed by HPLC to determined the solubility.

[2] = test system: Female BALB/c mice inoculated with LPS; assay: Evaluation of efficacy in mouse endotoxin shock model; type: in vivo; details: 10 mg/kg intravenously in saline, 1 hr before LPS 5 mg/kg intraperitoneally; survival at 5 days from LPS inoculation; 7 mice per group
Description: Female BALB/c mice (6-week-old) were purchased and, after preliminary rearing for 1 week, divided into groups (7 per group). The compound of Example 3 was dissolved in saline immediately before administration, and intravenously administered at 10 mg/kg. For the control group, a solvent was administered in the same manner. One hour later, LPS (5 mg/kg) was intraperitoneally inoculated, and the survival of the mice was observed. The efficacy was evaluated based on the survival rate at 5 days from LPS inoculation.

[3] = physchem; details: saline, saline or isotonic

Structure (SMILES)	solubility [3] [mg/mL]	further results
CCOC(=O)C1=CCCCC1S(=O)(=O)Nc1ccc(F)cc1Cl (stereo not shown) [Conventional compound, ethyl 6-[N-(2-chloro-4-fluorophenyl)sulfamoyl]cyclohex-1-ene-1-carboxylate]	–	solubility [1]: 0.01 mg/mL (≈ 27.6 µM)
CCOC(=O)C1=CCCCC1S(=O)(=O)N(COC(=O)OCCCC(=O)O)c1ccc(F)cc1Cl (stereo not shown) [Example 3, sodium 4-({[((2-chloro-4-fluorophenyl){[2-(ethoxycarbonyl)cyclohex-2-en-1-yl]sulfonyl}amino)methoxy]carbonyl}oxy)butanoate]	–	number of survived mice (N = 7) [2]: 6
CCOC(=O)C1=CCCCC1S(=O)(=O)N(Cc1cc(C)c(OC(=O)CNC)c(C)c1)c1ccc(F)cc1Cl (stereo not shown) [Example 21, ethyl 6-[((2-chloro-4-fluorophenyl){3,5-dimethyl-4-[(N-methylglycyl)oxy]benzyl}amino)sulfonyl]cyclohex-1-ene-1-carboxylate hydrochloride]	≥ 1	–
CCOC(=O)C1=CCCCC1S(=O)(=O)N(Cc1cc(C)c(OC(=O)[C@@H]2CCCN2)c(C)c1)c1ccc(F)cc1Cl (stereo partly drawn) [Example 23, 4-[((2-chloro-4-fluorophenyl){[2-(ethoxycarbonyl)cyclohex-2-en-1-yl]sulfonyl}amino)methyl]-2,6-dimethylphenyl L-prolinate]	≥ 1	–
